In US20250034520A1, “INCREASING DEVELOPMENTAL POTENTIAL OF HUMAN PREIMPLANTATION EMBRYOS BY REDUCING GENETIC INSTABILITY, ANEUPLOIDIES AND CHROMOSOMAL MOSAICISM” (THE TRUSTEES OF COLUMBIA UNIVERSITY IN THE CITY OF NEW YORK, priority 2022, published 2025):

Key:
mouse embryos = assay: mouse preimplantation development and embryo quality; format: cell-based
Procedure: (§1) Embryos, mouse and human, were cultured in Global Total (Life-Global) for the duration of the experiments and with added compounds as outlined below. Incubation in RNA polymerase inhibitors triptolide (1 mM) or alpha amanitin (20 mg/ml) was performed from the 2PN stage (day1) to day3 of human development. Incubation in aphidicolin was performed at 2 mM. […] Mirin was used at a concentration of 50 mM. Olaparib was used to inhibit PARP at a concentration of 10 mM. All experiments were conducted during incubation at 37° C. with 5% CO2 and 19-20% O2. Chemical stock solutions were prepared in DMSO at concentrations at least 1000× higher than the final concentration.
(§2) Mouse oocytes were activated at 1-6 hours post retrieval using 2 mM ionomycin (Sigma Aldrich) in Global Total medium for 5 minutes at 37° C. followed by culture in 10 mM puromycin and 5 mg/ml cytochalasin B for 3 hours, then cytochalasinB only for 2 hours and 10 minutes to prevent second polar body extrusion.
(§3) Following the experimental exposures, mouse and human embryos were fixed in 2% paraformaldehyde (PFA) and 0.25% Triton X-100 in PBS for 10 minutes at room temperature, serially washed in phosphate-buffered solution (PBS) at room temperature, then stored in PBS at 4° C. until staining and imaging. Embryos were placed in 10-20 ml droplets of primary antibody solution within plastic tissue culture dishes covered with mineral oil for 1 hour at room temperature, serially washed (×2) in PBS containing 0.01% Triton X-100 to prevent embryos sticking to oil, then transferred to 10-20 ml secondary antibody solution and Hoechst (dilution 1:500) for 30 minutes. Embryos were then serially washed (×2) and placed in 5 ml droplets of PBS with 0.5% serum albumin in uncoated glass bottom dishes (Mattek) covered with embryo culture oil for imaging. The following primary antibodies were used across experiments as described above: Oct-4, γH2AX, RPA32, RPA32 S4/S8, RPA32 S33, 53BP1, RAD51, Centromere, and phospho-CHK1. Phospho-specific antibodies were quality controlled through ATR dependence of foci formation in mouse zygotes, and for γH2AX also in human zygotes. […] The appropriate secondary antibodies conjugated with Alexa Fluor 488, Alexa Fluor 555, CF 568, or Alexa Fluor 647 were diluted at 1:500-1:1000. Ethynyl deoxyuridine (EdU) labeling of zygotes and embryos was performed using the labeling kit (Thermo Fisher Scientific) as described by the manufacturer. 10 mM EdU was added to culture medium for 1 h at the indicated time points, and cells were harvested and fixed thereafter. 5-ethynyl uridine (EU) labeling was performed by incubating day3 cleavage stage embryos for 4 hours in Global total containing 0.2 mM EU.
(§4) Embryos were imaged with confocal microscopy using a Zeiss LSM (LSM 710) at a magnification of 63× and the Zeiss Zen software. Images were obtained using 488-, 543- and 633-nm lasers and bright-field microscopy. The number of confocal sections was adjusted to capture the entire nucleus or the entire embryo according to the experimental design as described above. Cell numbers and staining foci numbers were counted manually. Nuclei were identified by the presence of Hoechst33342. Foci were identified if at least 3× greater intensity than nuclear average, spherical in appearance, and overlapping with Hoechst33342 staining. Inner cell masses were identified by the presence of Oct4 within a blastocyst embryo. Active DNA replication was identified by the presence of EdU. DNA damage was identified by the detection of γH2AX and RPA foci within the nucleus. Mechanisms of DNA repair were identified through the detection of RPA S4/S8, RPA S33, Rad51 and 53BP1 foci within the nucleus.

human embryos [1] = assay: nucleation and development of human embryos; format: cell-based; settings: 2PN zygotes incubated days 1 to 3, versus untreated cleavage-stage embryos
Excerpt: Cryopreserved human cleavage-stage and blastocyst embryos and unfertilized oocytes were anonymously donated from individuals and couples who provided consent for use in research. Embryos were of good quality and had been cryopreserved for potential clinical use but were then no longer needed and donated for research. The cause of treatment is not disclosed. Range of maternal age of donated embryos is between 27-43. Embryos of both sexes were used, as provided by the unbiased fertilization of oocytes with sperm carrying either a Y or X chromosome. Cleavage stage embryos were thawed using the one-step thaw protocol using Global total with HEPES. Blastocyst stage embryos were thawed using the Quinn's Advantage thaw kit, then exposed to experimental conditions as outlined below. Vitrified embryos were thawed with the ECMPC warming solution set. Embryo culture was performed in Global Total. All experiments were conducted during incubation at 37° C. with 5% CO2 and 20% 02.
as §1
(§5) Following the experimental exposures, mouse and human embryos were fixed in 2% paraformaldehyde (PFA) and 0.25% Triton X-100 in PBS for 10 minutes at room temperature, serially washed in phosphate-buffered solution (PBS) at room temperature, then stored in PBS at 4° C. until staining and imaging. Embryos were placed in 10-20 ml droplets of primary antibody solution within plastic tissue culture dishes covered with mineral oil for 1 hour at room temperature, serially washed (×2) in PBS containing 0.01% Triton X-100 to prevent embryos sticking to oil, then transferred to 10-20 ml secondary antibody solution and Hoechst (dilution 1:500) for 30 minutes. Embryos were then serially washed (×2) and placed in 5 ml droplets of PBS with 0.5% serum albumin in uncoated glass bottom dishes (Mattek) covered with embryo culture oil for imaging. […]
Embryos were imaged with confocal microscopy using a Zeiss LSM (LSM 710) at a magnification of 63× and the Zeiss Zen software. […] Cell numbers and staining foci numbers were counted manually. […]

human embryos [2] = assay: ethynyl uridine label incorporation in human embryos; format: cell-based; settings: incubation from days 1 to 3
Procedure: as §1
as §5, with “minutes.” for “minutes. Embryos were then serially washed (×2) and placed in 5 ml droplets of PBS with 0.5% serum albumin in uncoated glass bottom dishes (Mattek) covered with embryo culture oil for imaging.”

human zygotes = assay: DNA damage foci immunostaining in human zygotes/parthenotes; format: cell-based
Procedure: as §1
Artificial activation of human MII oocytes was performed using two pulses of 2.7 kV/cm at 50 ms using ECFG21 (Nepagene) in fusion buffer consisting of 0.25 M d-sorbitol buffer containing 0.1 mM calcium acetate, 0.5 mM magnesium acetate, 0.5 mM HEPES, and 1 mg ml^−1 fatty-acid-free BSA as previously described (Tachibana et al., 2013). Thereafter, oocytes were incubated for 3.5-4 h in 10 mg/ml puromycin, followed by a wash step and following culture in Global total.
as §3, with “phospho-CHK1.” for “phospho-CHK1. Phospho-specific antibodies were quality controlled through ATR dependence of foci formation in mouse zygotes, and for γH2AX also in human zygotes.”
as §4

mouse zygotes = assay: DNA damage foci immunostaining in mouse zygotes/embryos; format: cell-based; settings: mouse zygotes, mirin combined with aphidicolin
Procedure: as §1, §2, §3, §4

ATR = ATR (Homo sapiens, UniProt Q13535); settings: cited from earlier work
mouse 2-cell embryos = assay: single-cell sequencing chromosome content analysis, mouse 2-cell embryos; format: cell-based; settings: mouse embryos, Wee1 kinase inhibitor added alongside aphidicolin
Procedure: as §1
Single cells from blastomeres were collected on the heated stage (Tokai Hit) of an Olympus IX71 inverted microscope equipped with Narishige micromanipulators and a zona pellucida laser (Hamilton-Thorne). Single nuclei were isolated from blastomeres by lysis and dissection of different nuclei using two […] diameter Piezo micropipettes and Holding pipette (Origio). Single embryo cells or nuclei were placed manually in single wells of a 96-well plate containing 9 ml of lysis buffer, prepared as a master mix of 798 ml H2O, 6 ml of 10 mg/mL Proteinase K solution (Sigma-Aldrich), and 96 ml 10× Single Cell Lysis and Fragmentation buffer (Sigma-Aldrich). Single cells/single nuclei were lysed by heating 96-well plates containing single cells/single nuclei at 50° C. for 1 hour, followed by incubation at 99° C. for four minutes using a PCR thermocycler. Single-cell/single-nuclei whole genome amplification (WGA) using degenerate oligo-nucleotide priming PCR (DOP-PCR) was performed using the SEQPLEX Enhanced DNA Amplification Kit (SEQXE, Sigma) according to the manufacturer's instructions. In addition, a modified version of the DOP-PCR protocol that allows inline indexing of WGA DNA was also applied. WGA DNA was subsequently processed for Illumina library sequencing preparation using standard TruSeq indexing methods via the NEBNext Ultra II DNA Library Prep Kit for Illumina (New England Biolabs). NEBNext Multiplex Oligos for Illumina (96 index primers) were used for four amplification cycles. Library DNA was quantified using Qubit dsDNA HS Assay Kit (Invitrogen, Carlsbad, CA, USA) and library size distribution was confirmed using a 2100 Bioanalyzer DNA 1000 Kit (Agilent, Santa Clara, CA, USA). A unimodal curve centered around 300-500 bp was scored as a successful library preparation. Subsequently, 30 mL of each pooled library was sent for sequencing at a concentration of 20 ng/ml. Mutiplex sequencing was performed using Illumina HiSeq 2500 single end indexed run (SR100) while targeting a coverage of approximately 1 million reads per cell/nuclei, sufficient for quantitative genome-wide copy number analysis.
Analysis of DNA sequencing data was performed as previously described (Baslan et al., 2015) with minor modifications as outlined below. Briefly, multiplex sequencing data were demultiplexed according to unique barcodes with reads assigned to their respective single-cell or single-nuclei. Unique reads were aligned to the reference human and mouse genome builds, hg19 and mm9, respectively. Each genome was partitioned into 5000 bins using a previously described algorithm (Varbin) that corrects for genome sequence mappability (Baslan et al., 2012; Navin et al., 2011). Uniquely mapped reads were sorted, indexed and subsequently counted within the partitioned genomic bins. For single-cell copy number inference, read count data were normalized genome-wide followed by CBS segmentation (Olshen et al., 2004) and transformed into integer copy number states using a least-squares fit approach (Baslan et al., 2015).

mouse 1-cell embryos = assay: timing of mitotic entry in mouse 1-cell embryos; format: cell-based; settings: G2 phase mouse embryos, compared with untreated controls
Procedure: as §1, §2

Chain of ATR (Q13535 whole entry): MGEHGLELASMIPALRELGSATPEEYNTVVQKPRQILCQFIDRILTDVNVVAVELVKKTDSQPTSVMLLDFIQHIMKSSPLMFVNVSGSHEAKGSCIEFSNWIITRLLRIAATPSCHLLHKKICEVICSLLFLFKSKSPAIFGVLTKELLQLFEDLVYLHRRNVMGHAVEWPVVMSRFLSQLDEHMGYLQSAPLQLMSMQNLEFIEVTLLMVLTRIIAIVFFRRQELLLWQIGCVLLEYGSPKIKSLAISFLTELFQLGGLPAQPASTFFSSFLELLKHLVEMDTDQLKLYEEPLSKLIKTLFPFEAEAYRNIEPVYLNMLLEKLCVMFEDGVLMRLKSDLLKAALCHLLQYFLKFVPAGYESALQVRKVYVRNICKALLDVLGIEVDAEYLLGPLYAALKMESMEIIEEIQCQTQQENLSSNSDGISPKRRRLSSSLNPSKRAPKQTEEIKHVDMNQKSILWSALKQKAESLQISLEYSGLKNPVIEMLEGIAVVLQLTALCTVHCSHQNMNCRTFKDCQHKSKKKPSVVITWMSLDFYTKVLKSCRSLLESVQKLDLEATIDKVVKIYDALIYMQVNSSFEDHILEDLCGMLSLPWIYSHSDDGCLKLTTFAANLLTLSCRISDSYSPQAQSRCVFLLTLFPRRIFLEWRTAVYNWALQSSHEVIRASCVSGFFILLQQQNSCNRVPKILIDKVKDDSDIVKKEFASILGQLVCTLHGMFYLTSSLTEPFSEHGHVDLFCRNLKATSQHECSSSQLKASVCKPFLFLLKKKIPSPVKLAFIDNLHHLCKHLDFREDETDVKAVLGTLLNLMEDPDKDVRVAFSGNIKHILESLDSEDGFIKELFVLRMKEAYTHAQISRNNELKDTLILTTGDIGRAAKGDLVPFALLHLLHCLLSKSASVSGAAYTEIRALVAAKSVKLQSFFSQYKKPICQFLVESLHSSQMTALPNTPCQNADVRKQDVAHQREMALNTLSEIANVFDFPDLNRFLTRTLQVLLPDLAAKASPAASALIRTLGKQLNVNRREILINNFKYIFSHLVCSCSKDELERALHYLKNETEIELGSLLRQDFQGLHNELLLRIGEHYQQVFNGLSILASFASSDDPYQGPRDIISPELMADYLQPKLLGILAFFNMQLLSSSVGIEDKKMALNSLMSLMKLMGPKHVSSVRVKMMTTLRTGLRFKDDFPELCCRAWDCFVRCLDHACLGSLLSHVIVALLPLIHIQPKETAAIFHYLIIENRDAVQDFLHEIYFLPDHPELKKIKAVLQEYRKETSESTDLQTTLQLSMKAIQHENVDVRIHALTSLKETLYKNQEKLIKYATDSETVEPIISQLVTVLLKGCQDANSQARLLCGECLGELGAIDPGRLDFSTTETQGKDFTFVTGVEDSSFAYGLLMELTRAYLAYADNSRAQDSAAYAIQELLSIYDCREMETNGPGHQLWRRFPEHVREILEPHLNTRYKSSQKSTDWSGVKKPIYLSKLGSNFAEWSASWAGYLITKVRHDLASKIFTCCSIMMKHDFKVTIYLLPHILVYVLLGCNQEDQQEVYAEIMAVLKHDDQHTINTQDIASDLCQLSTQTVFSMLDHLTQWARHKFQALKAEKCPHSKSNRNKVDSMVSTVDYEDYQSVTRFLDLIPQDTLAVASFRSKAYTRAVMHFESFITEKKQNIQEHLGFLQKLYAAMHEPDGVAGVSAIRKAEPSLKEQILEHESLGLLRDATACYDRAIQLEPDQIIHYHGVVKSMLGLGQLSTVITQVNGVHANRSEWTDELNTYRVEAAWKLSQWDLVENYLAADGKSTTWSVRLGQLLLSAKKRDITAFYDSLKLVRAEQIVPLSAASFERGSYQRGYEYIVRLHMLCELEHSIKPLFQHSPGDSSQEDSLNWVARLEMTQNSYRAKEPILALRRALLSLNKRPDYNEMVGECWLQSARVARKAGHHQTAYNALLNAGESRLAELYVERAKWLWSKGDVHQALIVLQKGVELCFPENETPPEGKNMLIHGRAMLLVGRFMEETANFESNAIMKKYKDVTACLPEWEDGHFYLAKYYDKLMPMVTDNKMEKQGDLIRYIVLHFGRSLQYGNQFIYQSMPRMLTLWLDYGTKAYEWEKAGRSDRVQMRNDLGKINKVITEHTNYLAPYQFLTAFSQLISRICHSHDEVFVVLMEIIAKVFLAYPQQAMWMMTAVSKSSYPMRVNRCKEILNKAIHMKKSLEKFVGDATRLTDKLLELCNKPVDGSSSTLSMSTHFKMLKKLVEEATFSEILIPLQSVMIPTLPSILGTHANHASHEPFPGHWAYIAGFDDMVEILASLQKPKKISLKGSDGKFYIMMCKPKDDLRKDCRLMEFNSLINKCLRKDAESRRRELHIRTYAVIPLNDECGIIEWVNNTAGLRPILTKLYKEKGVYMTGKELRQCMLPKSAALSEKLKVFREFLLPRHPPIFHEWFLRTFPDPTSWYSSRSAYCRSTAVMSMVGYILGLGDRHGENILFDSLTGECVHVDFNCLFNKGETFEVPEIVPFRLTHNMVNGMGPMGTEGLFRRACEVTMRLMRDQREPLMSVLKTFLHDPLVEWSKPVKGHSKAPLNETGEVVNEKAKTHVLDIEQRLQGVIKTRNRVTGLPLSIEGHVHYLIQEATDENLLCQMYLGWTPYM
Chain of ATR (Q8WXE1 whole entry partner): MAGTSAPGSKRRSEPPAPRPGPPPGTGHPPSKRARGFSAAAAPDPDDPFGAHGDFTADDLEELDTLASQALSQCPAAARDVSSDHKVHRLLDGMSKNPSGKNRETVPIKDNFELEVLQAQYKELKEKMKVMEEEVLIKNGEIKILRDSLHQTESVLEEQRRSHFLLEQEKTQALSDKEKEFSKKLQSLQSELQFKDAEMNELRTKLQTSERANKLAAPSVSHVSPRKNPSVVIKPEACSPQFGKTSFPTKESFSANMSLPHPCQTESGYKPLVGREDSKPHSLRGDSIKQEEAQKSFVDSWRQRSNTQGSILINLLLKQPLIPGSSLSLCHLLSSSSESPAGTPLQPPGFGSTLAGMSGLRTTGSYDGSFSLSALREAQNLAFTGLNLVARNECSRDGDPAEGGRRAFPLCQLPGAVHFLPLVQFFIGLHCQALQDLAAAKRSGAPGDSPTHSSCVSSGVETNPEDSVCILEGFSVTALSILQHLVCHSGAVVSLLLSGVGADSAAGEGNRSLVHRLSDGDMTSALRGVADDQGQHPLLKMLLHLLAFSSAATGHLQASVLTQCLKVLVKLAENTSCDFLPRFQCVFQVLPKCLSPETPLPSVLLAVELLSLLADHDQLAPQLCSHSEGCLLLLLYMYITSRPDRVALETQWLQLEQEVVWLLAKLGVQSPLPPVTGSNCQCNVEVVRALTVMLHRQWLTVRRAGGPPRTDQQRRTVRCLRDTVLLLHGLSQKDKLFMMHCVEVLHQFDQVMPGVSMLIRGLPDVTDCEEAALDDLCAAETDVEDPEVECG

Compound: CC(C)[C@]12O[C@H]1[C@@H]1O[C@]13[C@]1(O[C@H]1C[C@H]1C4=C(CC[C@@]13C)C(=O)OC4)[C@@H]2O [triptolide]
- mouse embryos developed beyond the two-cell stage (mouse embryos; in the presence of the inhibitor): 0/15
- micronucleation (human embryos [1]): comparable
- embryos showing ethynyl uridine label incorporation (human embryos [2]): 0/4

Compound: N=C1NC(=O)/C(=C/c2ccc(O)cc2)S1 [mirin]
- number of RAD51 foci, average (human zygotes; human zygotes, combined exposure to aphidicolin and mirin): 50 sites
- number of Rad51 foci (mouse zygotes): more than 50
- number of foci marked by γH2AX (mouse zygotes): more than 100

Compound: CS(=O)(=O)c1ccc(-c2cnc(N)c(C(=O)Nc3ccccc3)n2)cc1 [ATR45]
- number of γH2AX foci (human zygotes; parthenogenetically activated oocytes, inhibitor from 14-18 h into the first cell cycle, relative to controls): reduced significantly
- selectivity over related kinases ATM or DNA-PK (ATR): > 600 ×

Compound: C=CCn1c(=O)c2cnc(Nc3ccc(N4CCN(C)CC4)cc3)nc2n1-c1cccc(C(C)(C)O)n1 [Wee1 kinase inhibitor]
- developmental potential (mouse embryos; treatment in G2 phase, compared with untreated controls): impaired
- genome after mitosis (mouse 2-cell embryos): highly fragmented genome
- advance of mitosis (mouse 1-cell embryos): 1.5 h

Compound: a-amanitin
- micronucleation (human embryos [1]): comparable
